The text below walks through data of patent US20250019385A1, “SPIROCYCLIC ANNULATED 2-AMINO-3-CYANO THIOPHENES AND DERIVATIVES FOR THE TREATMENT OF CANCER” (Boehringer Ingelheim International GmbH, priority 2023, published 2025).

One may read the IC50 as the concentration that inhibits the measured activity by half. Read a high IC50 as weaker potency.

Assay type in all cases: cell-based
For one experiment, the system named is LOVO cells. Nature of the experiment: LOVO CTG proliferation assay (120 h) (CRC, G13D). The following applies: Homo sapiens. Here is the method: (§1) LOVO cells (ATCC No. CCL-229) are dispensed into black 384-well plates, flat and clear bottom (Greiner, PNr. 781091) at a density of 1000 cells per well in 60 μl DMEM (Sigma D6429)+10% FCS (fetal calf serum, HyClone, SH30084.03). Cells are incubated overnight at 37° C. in a humidified tissue culture incubator at 5% CO2. Compounds (10 mM stock in DMSO) are added at logarithmic dose series using the ECHO acoustic liquid handler system (Beckman Coulter), normalizing for added DMSO and including DMSO controls. All compound treatments are performed in technical duplicates. For the TO time point measurement, untreated cells are analyzed at the time of compound addition. Plates are incubated for 120 h, and cell viability is measured using CellTiter-Glo luminescent cell viability reagent (Promega product code G7570). Viability (stated as percent of control) is defined as relative luminescence units RLU of each well divided by the RLU of cells in DMSO controls. IC50 values are determined from viability measurements by non-linear regression using a four-parameter model.
(§2) IC50 values of representative compounds according to the invention measured with these assays in the indicated cell lines are presented in Table 46.

The subject of a further experiment is AsPC-1 cells. Nature of the experiment: AsPC-1 CTG proliferation assay (120 h) (pancreatic cancer, G12D). The following applies: Homo sapiens, ASPC1. On the procedure: as §1, with “AsPC-1” for “LOVO”, “CRL-1682)” for “No. CCL-229)”, “500” for “1000”, “RPMI ATCC-Formulation (PAN P04-18047)+10%” for “DMEM (Sigma D6429)+10%”
as §2

In another experiment the test system is Ba/F3 cells KRAS G12D. Briefly: Ba/F3 proliferation assay (KRAS G12D). The following applies: Mus musculus, BaF3, 72 h, AlamarBlue viability. Here is the method:
Ba/F3 cells are ordered from DSMZ (ACC300, Lot17) and grown in RPMI-1640 (ATCC 30-2001)+10% FCS+10 ng/mL IL-3 at 37° C. in 5% […] atmosphere. Plasmids containing KRASG12 mutants (i.e. […], G12C, G12V) are obtained from GeneScript. To generate KRASG12-dependent Ba/F3 models, Ba/F3 cells are transduced with retroviruses containing vectors that harbor KRASG12 isoforms. Platinum-E cells (Cell Biolabs) are used for retrovirus packaging. Retrovirus is added to Ba/F3 cells. To ensure infection, 4 μg/mL polybrene is added and cells are spinfected. Infection efficiency is confirmed by measuring GFP-positive cells using a cell analyzer. Cells with an infection efficiency of 10% to 20% are further cultivated and puromycin selection with 1 μg/mL is initiated. As a control, parental Ba/F3 cells are used to show selection status. Selection is considered successful when parental Ba/F3 cells cultures died. To evaluate the transforming potential of KRASG12 mutations, the growth medium is no longer supplemented with IL-3. Ba/F3 cells harboring the empty vector are used as a control. Approximately ten days before conducting the experiments, puromycin is left out.
For proliferation assays, Ba/F3 cells are seeded into 384-well plates at 1.5×1 (M cells/60 μL in growth media (RPMI-1640+10% FCS). Compounds (10 mM stock in DMSO) are added at logarithmic dose series using the ECHO acoustic liquid handler system (Beckman Coulter), normalizing for added DMSO and including DMSO controls. All compound treatments are performed in technical duplicates. For the TO time point measurement, untreated cells are analyzed at the time of compound addition. Treated cells are incubated for 72 h at 37° C. with 5% CO2 and cell viability is measured in the PerkinElmer Envision Multimode Reader using AlamarBlue™ (ThermoFisher) viability stain. Viability (stated as percent of control) is defined as relative fluorescence units RFU of each well divided by the RFU of cells in DMSO controls. IC50 values are determined from viability measurements by non-linear regression using a four-parameter model.
On the technique in general: The colour change of resazurin is a common sign of viable cells or microbes.

With `C[C@H](Oc1nc(-c2onc3c2CCC[C@@]32CCCc3sc(N)c(C#N)c32)nc2c1n(C)c(=O)n2C1COC1)[C@@H]1CCCN1C` [I-24], the IC50 stood at 235 nM in the experiment with LOVO cells, 2760 nM with AsPC-1 cells and 134 nM in the experiment with Ba/F3 cells KRAS G12D.

Consider `C[C@H](Oc1nc(-c2onc3c2CCC[C@@]32CCCc3sc(N)c(C#N)c32)nc2c1n(C)c(=O)n2[C@@H]1CCOC1)C12CCCN1CCC2` [I-25], for which the figures for the IC50 in the experiment on LOVO cells, with AsPC-1 cells and with Ba/F3 cells KRAS G12D were 55 nM, 1300 nM and 25 nM, respectively.

Consider `C[C@H](Oc1nc(-c2onc3c2CCC[C@@]32CCCc3sc(N)c(C#N)c32)nc2c1n(C)c(=O)n2[C@@H]1CCOC1)[C@@H]1CC[C@H](C)N1C` [I-26], for which the results for the IC50 in the experiment with LOVO cells, with AsPC-1 cells and with Ba/F3 cells KRAS G12D were 11 nM, 854 nM and 5 nM, respectively.

With `C[C@H](Oc1nc(-c2onc3c2CCC[C@@]32CCCc3sc(N)c(C#N)c32)nc2c1n(C)c(=O)n2[C@@H]1CCOC1)[C@@H]1C[C@H](F)CN1C` [I-27], the IC50 came out at 52 nM with LOVO cells, 2300 nM with AsPC-1 cells and 55 nM in the experiment with Ba/F3 cells KRAS G12D.

With `C[C@H](Oc1nc(-c2onc3c2CCC[C@@]32CCCc3sc(N)c(C#N)c32)nc2c1n(C)c(=O)n2[C@@H]1CCOC1)[C@@H]1C[C@@H]2C[C@@H]2N1C` [I-28], the results for the IC50 with LOVO cells, in the experiment on AsPC-1 cells and with Ba/F3 cells KRAS G12D were 105 nM, 1720 nM and 53 nM, respectively.

Consider `C[C@H](Oc1nc(-c2onc3c2CCC[C@@]32CCCc3sc(N)c(C#N)c32)nc2c1n(C)c(=O)n2[C@@]12COC[C@@H]1C2)[C@@H]1CCCN1C` [I-29], for which the IC50 came to 4 nM with LOVO cells, 322 nM with AsPC-1 cells and 14 nM in the experiment with Ba/F3 cells KRAS G12D.

With `CCn1c(=O)n([C@@H]2CCCOC2)c2nc(-c3onc4c3CCC[C@@]43CCCc4sc(N)c(C#N)c43)nc(O[C@@H](C)[C@@H]3CCCN3C)c21` [I-30], the results for the IC50 with LOVO cells, with AsPC-1 cells and in the experiment with Ba/F3 cells KRAS G12D were 7 nM, 972 nM and 29 nM, respectively.

On to `CO[C@H]1C[C@@H](n2c(=O)n(C)c3c(O[C@@H](C)[C@@H]4CCCN4C)nc(-c4onc5c4CCC[C@@]54CCCc5sc(N)c(C#N)c54)nc32)C1` [I-31], for which the IC50 stood at 36 nM in the experiment with LOVO cells, 1070 nM in the experiment with AsPC-1 cells and 37 nM in the experiment on Ba/F3 cells KRAS G12D.

For the molecule `CC(C)n1c(=O)n([C@@H]2CCOC2)c2nc(-c3onc4c3CCC[C@@]43CCCc4sc(N)c(C#N)c43)nc(O[C@@H](C)[C@@H]3CCCN3C)c21` [I-32], the half-inhibitory concentration (IC50) is 25 nM in the experiment on LOVO cells, 1500 nM with AsPC-1 cells and 58 nM in the experiment with Ba/F3 cells KRAS G12D.

`CCn1c(=O)n([C@@H]2CCCOC2)c2nc(-c3onc4c3CCC[C@@]43CCCc4sc(N)c(C#N)c43)nc(OC[C@@]34CCCN3C[C@H](F)C4)c21` [I-33]: the IC50 was determined as 891 nM with LOVO cells, 8950 nM with AsPC-1 cells and 3550 nM in the experiment with Ba/F3 cells KRAS G12D.

For `CCn1c(=O)n([C@@H]2CCCOC2)c2nc(-c3onc4c3CCC[C@@]43CCCc4sc(N)c(C#N)c43)nc(OCC34CCCN3CCC4)c21` [I-34], the IC50 in the experiment with LOVO cells amounted to 1340 nM; in the experiment on AsPC-1 cells it was 5070 nM; with Ba/F3 cells KRAS G12D it was 3020 nM.

`CCn1c(=O)n([C@@H]2CCCOC2)c2nc(-c3onc4c3CCC[C@@]43CCCc4sc(N)c(C#N)c43)nc(OCC3(CN4CCCC4)CC3)c21` [I-35]: the results for the IC50 with LOVO cells, in the experiment on AsPC-1 cells and in the experiment with Ba/F3 cells KRAS G12D were 120 nM, 4250 nM and 411 nM, respectively.

For the molecule `CCn1c(=O)n([C@@H]2CCCOC2)c2nc(-c3onc4c3CCC[C@@]43CCCc4sc(N)c(C#N)c43)nc(O[C@@H](C)C34CCCN3CCC4)c21` [I-36], the IC50 in the experiment with LOVO cells came to 9 nM; in the experiment with AsPC-1 cells, 1100 nM; in the experiment on Ba/F3 cells KRAS G12D, 95 nM.

Regarding `C[C@H](Oc1nc(-c2onc3c2CCC[C@@]32CCCc3sc(N)c(C#N)c32)nc2c1N(C)C(=O)CN2[C@@H]1CCOC1)[C@@H]1CCCN1C` [I-37], the IC50 in the experiment with LOVO cells turned out to be 31 nM; in the experiment on AsPC-1 cells, 4120 nM; in the experiment with Ba/F3 cells KRAS G12D, 305 nM.

Consider `C[C@H](Oc1nc(-c2onc3c2CCC[C@@]32CCCc3sc(N)c(C#N)c32)nc2c1ncn2[C@@H]1CCOC1)[C@@H]1CCCN1C` [I-38], for which the IC50 amounted to 114 nM in the experiment on LOVO cells, 267 nM in the experiment on AsPC-1 cells and 28 nM in the experiment with Ba/F3 cells KRAS G12D.

`Cc1nc2c(O[C@@H](C)[C@@H]3CCCN3C)nc(-c3onc4c3CCC[C@@]43CCCc4sc(N)c(C#N)c43)nc2n1[C@@H]1CCOC1` [I-39]: the IC50 in the experiment on LOVO cells amounted to 19 nM; in the experiment on AsPC-1 cells, 353 nM; in the experiment on Ba/F3 cells KRAS G12D it was 24 nM.

As to `Cc1cc2c(O[C@@H](C)[C@@H]3CCCN3C)nc(-c3onc4c3CCC[C@@]43CCCc4sc(N)c(C#N)c43)nc2n1[C@@H]1CCOC1` [I-40], the IC50 was determined as 43 nM with LOVO cells, 500 nM with AsPC-1 cells and 28 nM in the experiment on Ba/F3 cells KRAS G12D.

Regarding `Cc1cn([C@@H]2CCOC2)c2nc(-c3onc4c3CCC[C@@]43CCCc4sc(N)c(C#N)c43)nc(O[C@@H](C)[C@@H]3CCCN3C)c12` [I-41], the IC50 with LOVO cells came to 348 nM; in the experiment with AsPC-1 cells, 980 nM; in the experiment on Ba/F3 cells KRAS G12D, 106 nM.

For the molecule `Cc1nn([C@@H]2CCOC2)c2nc(-c3onc4c3CCC[C@@]43CCCc4sc(N)c(C#N)c43)nc(O[C@@H](C)[C@@H]3CCCN3C)c12` [I-42], the IC50 was 107 nM in the experiment with LOVO cells, 1180 nM with AsPC-1 cells and 37 nM with Ba/F3 cells KRAS G12D.

Turning to `C[C@H](Oc1nc(-c2onc3c2CCC[C@@]32CCCc3sc(N)c(C#N)c32)nc2c1cnn2[C@@H]1CCOC1)[C@@H]1CCCN1C` [I-43], the IC50 with LOVO cells amounted to 15 nM; in the experiment on AsPC-1 cells it was 1390 nM; in the experiment on Ba/F3 cells KRAS G12D it was 49 nM.

On to `C[C@@H]1COC[C@H](n2c(=O)n(C)c3c(O[C@@H](C)[C@@H]4CCCN4C)nc(-c4onc5c4CCC[C@@]54CCCc5sc(N)c(C#N)c54)nc32)C1` [I-44], for which the IC50 came to 12 nM in the experiment with LOVO cells, 271 nM in the experiment on AsPC-1 cells and 17 nM in the experiment with Ba/F3 cells KRAS G12D.

Regarding `C[C@H](Oc1nc(-c2onc3c2CCC[C@@]32CCCc3sc(N)c(C#N)c32)nc2c1n(C)c(=O)n2[C@@]12COC[C@@H]1C2)[C@@H]1CC[C@H](C)N1C` [I-45], the IC50 was 9 nM in the experiment with LOVO cells, 286 nM in the experiment on AsPC-1 cells and 6 nM in the experiment with Ba/F3 cells KRAS G12D.

For `CO[C@@H]1C[C@@H]([C@H](C)Oc2nc(-c3onc4c3CCC[C@@]43CCCc4sc(N)c(C#N)c43)nc3c2n(C)c(=O)n3[C@@]23COC[C@@H]2C3)N(C)C1` [I-46], the IC50 is 21 nM with LOVO cells, 292 nM with AsPC-1 cells and 15 nM in the experiment on Ba/F3 cells KRAS G12D.

In the case of `C[C@H](Oc1nc(-c2onc3c2CCC[C@@]32CCCc3sc(N)c(C#N)c32)nc2c1COC[C@]21CCOC1)[C@@H]1CCCN1C` [I-54], the IC50 came to 4 nM with LOVO cells, 76 nM with AsPC-1 cells and 4 nM in the experiment with Ba/F3 cells KRAS G12D.

As for `C[C@H](Oc1nc(-c2onc3c2CCC[C@@]32CCCc3sc(N)c(C#N)c32)nc2c1CN(C1COC1)C[C@]21CCOC1)[C@@H]1CC[C@H](C)N1C` [I-55], the half-inhibitory concentration (IC50) with LOVO cells was 26 nM; in the experiment with AsPC-1 cells, 202 nM; with Ba/F3 cells KRAS G12D it was 10 nM.

For the molecule `C[C@H](Oc1nc(-c2onc3c2CCC[C@@]32CCCc3sc(N)c(C#N)c32)nc2c1CN(C1COC1)C[C@]21CCOC1)[C@@H]1CCCN1C` [I-56], the IC50 with LOVO cells turned out to be 43 nM; in the experiment with AsPC-1 cells, 92 nM; in the experiment with Ba/F3 cells KRAS G12D, 13 nM.
